According to patent US6511670B1, “(poly)thiaalkynoic compounds and pharmaceutical/cosmetic compositions comprised thereof” (Societe L'Oreal S.A., priority 1999, dated 2003):

How the values were obtained:
Type in all cases: cell-based
[1] = target: T1, PPAR-δ (Homo sapiens, UniProt Q03181); test: transactivation test of PPAR-type receptors (luciferase reporter, cotransfected HeLa cells), PPAR-δ; settings: HeLa cells cotransfected with PPAR-δ expression vector and PPRE-luciferase reporter, 24 hours, n.a. = not active; for AC50: concentration giving 50% of the activity of the reference molecule; for δ Ymax %: relative to Reference 2
T1 construct: expressed in transfected cells; host or cells: HeLa cells
T1 sequence (Q03181 1-441): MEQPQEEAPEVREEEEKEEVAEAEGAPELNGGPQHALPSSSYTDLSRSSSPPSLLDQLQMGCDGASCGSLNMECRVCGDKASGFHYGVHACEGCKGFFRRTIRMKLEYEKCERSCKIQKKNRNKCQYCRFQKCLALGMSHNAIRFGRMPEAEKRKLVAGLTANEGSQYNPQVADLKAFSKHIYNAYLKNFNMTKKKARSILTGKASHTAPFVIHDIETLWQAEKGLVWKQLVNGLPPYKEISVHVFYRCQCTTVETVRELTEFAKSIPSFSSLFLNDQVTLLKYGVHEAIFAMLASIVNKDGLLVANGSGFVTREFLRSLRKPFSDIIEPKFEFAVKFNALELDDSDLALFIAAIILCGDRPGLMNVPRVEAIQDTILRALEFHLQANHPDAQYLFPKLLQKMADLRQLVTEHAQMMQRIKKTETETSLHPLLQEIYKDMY
Method: (§1) This activity is determined with the aid of a reporter enzyme (luciferase) for the activation due to the compound via one of the PPAR receptors, and more particularly of the PPAR-α type.
(§2) The biological tests carried out corresponded to those described in the application. […] Thus, the activating power via PPAR-α, PPAR-γ or PPAR-δ of molecules was evaluated with a transactivation test in which HeLa cells were cotransfected with an expression vector encoding these receptors and a reporter plasmid containing a PPRE response element cloned upstream of a portion of a promoter of the SV40 virus and of the luciferase gene. The cotransfected cells were treated for 24 hours with the molecules to be tested and the activity of the luciferase was determined by luminescence.

[2] = target: T2, PPAR-α (Homo sapiens, UniProt Q07869); test: transactivation test of PPAR-type receptors (luciferase reporter, cotransfected HeLa cells), PPAR-α; settings: HeLa cells cotransfected with PPAR-α expression vector and PPRE-luciferase reporter, 24 hours, n.a. = not active; for AC50: concentration giving 50% of the activity of the reference molecule; for α Ymax %: relative to Reference 1
T2 construct: expressed in transfected cells; host or cells: HeLa cells
T2 sequence (Q07869 1-468): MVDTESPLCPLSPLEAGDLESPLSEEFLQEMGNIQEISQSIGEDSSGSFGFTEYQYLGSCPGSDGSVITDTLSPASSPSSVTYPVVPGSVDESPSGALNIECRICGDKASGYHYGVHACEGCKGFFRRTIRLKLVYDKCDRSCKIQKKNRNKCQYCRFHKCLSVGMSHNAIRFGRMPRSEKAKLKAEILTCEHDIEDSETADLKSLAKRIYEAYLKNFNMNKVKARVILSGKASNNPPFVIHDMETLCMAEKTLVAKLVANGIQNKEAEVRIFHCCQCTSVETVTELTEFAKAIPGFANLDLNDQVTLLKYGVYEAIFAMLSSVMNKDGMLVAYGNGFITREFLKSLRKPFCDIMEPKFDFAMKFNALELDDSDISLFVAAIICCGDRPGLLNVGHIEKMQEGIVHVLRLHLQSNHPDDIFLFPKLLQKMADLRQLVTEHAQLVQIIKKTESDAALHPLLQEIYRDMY
Method: as §1, §2

[3] = target: T3, PPAR-γ (Homo sapiens, UniProt P37231); test: transactivation test of PPAR-type receptors (luciferase reporter, cotransfected HeLa cells), PPAR-γ; settings: HeLa cells cotransfected with PPAR-γ expression vector and PPRE-luciferase reporter, 24 hours, n.a. = not active; for AC50: concentration giving 50% of the activity of the reference molecule; for γ Ymax %: relative to Reference 2
T3 construct: expressed in transfected cells; host or cells: HeLa cells
T3 sequence (P37231 1-505): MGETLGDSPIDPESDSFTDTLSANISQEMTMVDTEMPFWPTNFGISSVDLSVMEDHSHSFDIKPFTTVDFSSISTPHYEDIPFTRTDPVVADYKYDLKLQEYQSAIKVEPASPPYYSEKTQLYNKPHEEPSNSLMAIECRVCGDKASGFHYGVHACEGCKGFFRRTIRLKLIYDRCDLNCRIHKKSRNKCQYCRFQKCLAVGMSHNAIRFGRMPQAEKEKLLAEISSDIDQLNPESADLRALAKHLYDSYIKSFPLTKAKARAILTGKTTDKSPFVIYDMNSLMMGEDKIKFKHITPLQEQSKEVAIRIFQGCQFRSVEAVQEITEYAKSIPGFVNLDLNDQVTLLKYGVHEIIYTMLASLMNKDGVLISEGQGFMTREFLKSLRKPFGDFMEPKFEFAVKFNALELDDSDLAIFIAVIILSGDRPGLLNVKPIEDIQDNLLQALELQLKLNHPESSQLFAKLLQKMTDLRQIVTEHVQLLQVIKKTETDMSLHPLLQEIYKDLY
Method: as §1, §2

## CCCCCC#CCC#CCC#CCC#CCSCC(=O)O [Comparative Example 1, 3-thia-5,8,11,14-eicosatetraynoic acid]
[1]
  AC50: 7 µM
  δ Ymax %: 125%
[2]
  AC50: 4 µM
  α Ymax %: 128%
[3]
  AC50: 3 µM
  γ Ymax %: 83%

## CCCCCCCCC#CCC#CCSCC(=O)O [Example 14, 3-Thia-5,8-heptadecadiynoic Acid]
[2]
  AC50: 1 µM
  α Ymax %: 116%

## CCCCCCCCCCC#CCSCC(=O)O [Example 10, 3-Thia-5-hexadecynoic Acid]
[2]
  AC50: 1.5 µM
  α Ymax %: 142%

## CCCCCCCCC#CCC#CCC#CCSCC(=O)O [Comparative Example 2, 3-thia-5,8,11-eicosatriynoic acid]
[1]
  AC50: 11 µM
  δ Ymax %: 74%
[2]
  AC50: 5 µM
  α Ymax %: 112%
[3]
  AC50: 4 µM
  γ Ymax %: 58%

## CCCCCCCCSCC#CCSCC(=O)O [Example 8, 3,8-Dithia-5-hexadecynoic Acid]
[2]
  AC50: 2.9 µM
  α Ymax %: 91%

## Cc1cccc(Nc2cc(Cl)nc(SCC(=O)O)n2)c1C [Reference 1, [4-chloro-6-(2,3-dimethylphenylamino)pyrimidin-2-ylsulfanyl]acetic acid]
[2]
  α Ymax %: 100%

## CCCCCC#CCC#CCC#CCSCC(=O)O [Example 21, 3-Thia-5,8,11-heptadecatriynoic Acid]
[2]
  AC50: 3 µM
  α Ymax %: 138%
